Data as given in patent US20230167073A1 (Teijin Pharma Limited, priority 2020, published 2023).

Each compound was assayed against T1, Human TRPC6 (Homo sapiens, UniProt Q9Y210) (assay: Evaluation of TRPC6 channel inhibitory activity (1), FLIPR Calcium 5 Assay Kit, OAG stimulation (Compound Nos. 1-1293)). Details: Human TRPC6 stably-expressing cells, OAG 30 μM, FLIPR Calcium 5 Assay Kit; read-out: Inhibitory activity (pIC50 class) (converted).
T1 construct: expressed in transfected cells
T1 sequence (Q9Y210 1-931): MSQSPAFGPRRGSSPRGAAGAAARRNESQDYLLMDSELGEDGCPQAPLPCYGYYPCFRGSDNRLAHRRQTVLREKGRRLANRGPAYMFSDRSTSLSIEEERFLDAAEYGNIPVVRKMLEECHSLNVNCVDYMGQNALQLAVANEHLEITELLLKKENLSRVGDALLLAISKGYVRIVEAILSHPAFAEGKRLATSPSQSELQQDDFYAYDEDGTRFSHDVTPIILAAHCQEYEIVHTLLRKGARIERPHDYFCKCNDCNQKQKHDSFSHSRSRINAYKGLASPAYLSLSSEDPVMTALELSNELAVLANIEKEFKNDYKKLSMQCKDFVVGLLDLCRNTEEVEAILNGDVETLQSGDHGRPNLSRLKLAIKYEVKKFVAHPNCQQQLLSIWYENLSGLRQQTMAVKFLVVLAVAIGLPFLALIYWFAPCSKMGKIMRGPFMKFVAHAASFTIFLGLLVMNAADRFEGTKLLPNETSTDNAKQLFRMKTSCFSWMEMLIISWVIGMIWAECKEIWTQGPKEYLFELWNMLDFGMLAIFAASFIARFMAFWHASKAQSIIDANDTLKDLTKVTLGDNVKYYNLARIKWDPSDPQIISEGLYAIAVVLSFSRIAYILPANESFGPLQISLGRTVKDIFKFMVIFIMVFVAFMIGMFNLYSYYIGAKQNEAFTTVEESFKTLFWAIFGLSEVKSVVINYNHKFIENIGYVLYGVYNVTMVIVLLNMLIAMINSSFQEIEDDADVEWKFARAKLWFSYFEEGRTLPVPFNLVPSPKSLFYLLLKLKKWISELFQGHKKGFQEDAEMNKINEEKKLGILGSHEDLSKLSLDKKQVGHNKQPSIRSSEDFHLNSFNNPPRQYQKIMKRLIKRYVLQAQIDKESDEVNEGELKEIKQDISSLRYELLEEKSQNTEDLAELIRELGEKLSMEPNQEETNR
Type: cell-based
Procedure, shortened: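 TRPC6 (human) stable cells, 24 h culture; Ca5 no-wash dye + probenecid 30 min; cpd 20 min; OAG 30 μM final; ΔF (pre-cpd min to post-OAG max); 0%/100% = no cpd / no cpd + no OAG; 4PL → pIC50, binned +/++/+++.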

IC50 [µM] | Structure (SMILES)
< 0.01 | CC(C)C(N)c1cnc(-c2ccc(C#N)cc2Oc2cc(-c3ccccn3)nn2C)nc1 (stereo not shown) [compound 768, 4-[5-(1-amino-2-methylpropyl)pyrimidin-2-yl]-3-(2-methyl-5-pyridin-2-ylpyrazol-3-yl)oxybenzonitrile]
< 0.01 | CN(CC1CC1)c1cc(Oc2cc(C#N)ccc2-c2ncc(CCN)cn2)n(C)n1 [compound 769, 4-[5-(2-aminoethyl)pyrimidin-2-yl]-3-[5-[cyclopropylmethyl(methyl)amino]-2-methylpyrazol-3-yl]oxybenzonitrile]
< 0.01 | CCCN(C)c1cc(Oc2cc(C#N)ccc2-c2ncc(CCN)cn2)n(C)n1 [compound 770, 4-[5-(2-aminoethyl)pyrimidin-2-yl]-3-[2-methyl-5-[methyl(propyl)amino]pyrazol-3-yl]oxybenzonitrile]
< 0.01 | Cn1nc(N2CCOCC2)cc1Oc1cc(C#N)ccc1-c1ncc(CN)cn1 [compound 772, 4-[5-(aminomethyl)pyrimidin-2-yl]-3-(2-methyl-5-morpholin-4-ylpyrazol-3-yl)oxybenzonitrile]
< 0.01 | CCN(C)c1cc(Oc2cc(C#N)ccc2-c2ncc(CCN)cn2)n(C)n1 [compound 774, 4-[5-(2-aminoethyl)pyrimidin-2-yl]-3-[5-[ethyl(methyl)amino]-2-methylpyrazol-3-yl]oxybenzonitrile]
< 0.01 | CC(C)N(C)c1cc(Oc2cc(C#N)ccc2-c2ncc(CCN)cn2)n(C)n1 [compound 775, 4-[5-(2-aminoethyl)pyrimidin-2-yl]-3-[2-methyl-5-[methyl(propan-2-yl)amino]pyrazol-3-yl]oxybenzonitrile]
> 1 | Cn1nc(C2CC2)cc1Oc1cc(C#N)ccc1-c1ccc(CN2CCNCC2)cn1 [compound 779, 3-(5-cyclopropyl-2-methylpyrazol-3-yl)oxy-4-[5-(piperazin-1-ylmethyl)pyridin-2-yl]benzonitrile]
> 1 | Cn1nc(C2CC2)cc1Oc1cc(C#N)ccc1-c1ccc(C(=O)N2CCNCC2)cn1 [compound 780, 3-(5-cyclopropyl-2-methylpyrazol-3-yl)oxy-4-[5-(piperazine-1-carbonyl)pyridin-2-yl]benzonitrile]
> 1 | Cn1nc(C2CC2)cc1Oc1cc(C#N)ccc1-c1ccc(NC(=O)C2CCNCC2)cn1 [compound 781, N-[6-[4-cyano-2-(5-cyclopropyl-2-methylpyrazol-3-yl)oxyphenyl]pyridin-3-yl]piperidine-4-carboxamide]
> 1 | CN(C)CCOc1ccc(-c2ccc(C#N)cc2Oc2cc(C3CC3)nn2C)nn1 [compound 784, 3-(5-cyclopropyl-2-methylpyrazol-3-yl)oxy-4-[6-[2-(dimethylamino)ethoxy]pyridazin-3-yl]benzonitrile]
0.01 to 1 | N#Cc1ccc(-c2ccc(CCN)cc2)c(Oc2sc(N3CCCCC3)nc2C(F)(F)F)c1 [compound 785, 4-[4-(2-aminoethyl)phenyl]-3-[[2-piperidin-1-yl-4(trifluoromethyl)-1,3-thiazol-5-yl]oxy]benzonitrile]
< 0.01 | CN(CC(F)F)c1cc(Oc2cc(C#N)ccc2-c2ncc(CCN)cn2)n(C)n1 [compound 786, 4-[5-(2-aminoethyl)pyrimidin-2-yl]-3-[5-[2,2-difluoroethyl(methyl)amino]-2-methylpyrazol-3-yl]oxybenzonitrile]
< 0.01 | CN(CC(F)(F)F)c1cc(Oc2cc(C#N)ccc2-c2ncc(CCN)cn2)n(C)n1 [compound 787, 4-[5-(2-aminoethyl)pyrimidin-2-yl]-3-[2-methyl-5-[methyl(2,2,2-trifluoroethyl)amino]pyrazol-3-yl]oxybenzonitrile]
0.01 to 1 | CCN(CC)c1cc(Oc2cc(C#N)ccc2-c2ncc(CN)cn2)nc(C)n1 [compound 791, 4-[5-(aminomethyl)pyrimidin-2-yl]-3-[6-(diethylamino)-2-methylpyrimidin-4-yl]oxybenzonitrile]
0.01 to 1 | Cc1nc(Oc2cc(C#N)ccc2-c2ncc(CN)cn2)cc(N(C)C(C)C)n1 [compound 792, 4-[5-(aminomethyl)pyrimidin-2-yl]-3-[2-methyl-6-[methyl(propan-2-yl)amino]pyrimidin-4-yl]oxybenzonitrile]
> 1 | Cc1nc(Oc2cc(C#N)ccc2-c2ncc(CN)cn2)cc(N2CC(F)C2)n1 [compound 793, 4-[5-(aminomethyl)pyrimidin-2-yl]-3-[6-(3-fluoroazetidin-1-yl)-2-methylpyrimidin-4-yl]oxybenzonitrile]
< 0.01 | Cc1nc(Oc2cc(C#N)ccc2-c2ncc(CN)cn2)cc(N2CCC[C@@H]2C)n1 [compound 795, 4-[5-(aminomethyl)pyrimidin-2-yl]-3-[2-methyl-6-[(2S)-2-methylpyrrolidin-1-yl]pyrimidin-4-yl]oxybenzonitrile]

Second part, the compound before the results:

Structure (SMILES) | IC50 [µM]
Cn1nc(N2CCOCC2)cc1Oc1cc(C#N)ccc1-c1ncc(CCN)cn1 [compound 771, 4-[5-(2-aminoethyl)pyrimidin-2-yl]-3-(2-methyl-5-morpholin-4-ylpyrazol-3-yl)oxybenzonitrile] | 0.01 to 1
Cn1nc(N2CCOCC2)cc1Oc1cc(C#N)ccc1-c1ccc(CN)cn1 [compound 773, 4-[5-(aminomethyl)pyridin-2-yl]-3-(2-methyl-5-morpholin-4-ylpyrazol-3-yl)oxybenzonitrile] | < 0.01
Cn1nc(C2CC2)cc1Oc1cc(C#N)ccc1-n1cc2c(n1)CCNC2 [compound 776, 3-(5-cyclopropyl-2-methylpyrazol-3-yl)oxy-4-(4,5,6,7-tetrahydropyrazolo[4,3-c]pyridin-2-yl)benzonitrile] | > 1
Cn1nc(C2CC2)cc1Oc1cc(C#N)ccc1-n1ncc2c1CCNC2 [compound 777, 3-(5-cyclopropyl-2-methylpyrazol-3-yl)oxy-4-(4,5,6,7-tetrahydropyrazolo[4,3-c]pyridin-1-yl)benzonitrile] | > 1
Cn1nc(C2CC2)cc1Oc1cc(C#N)ccc1-c1ccc(CN2CCNCC2=O)cn1 [compound 778, 3-(5-cyclopropyl-2-methylpyrazol-3-yl)oxy-4-[5-[(2-oxopiperazin-1-yl)methyl]pyridin-2-yl]benzonitrile] | > 1
CN(C(=O)C1CCNCC1)c1ccc(-c2ccc(C#N)cc2Oc2cc(C3CC3)nn2C)nc1 [compound 782, N-[6-[4-cyano-2-(5-cyclopropyl-2-methylpyrazol-3-yl)oxyphenyl]pyridin-3-yl]-N-methylpiperidine-4-carboxamide] | > 1
Cn1nc(C2CC2)cc1Oc1cc(C#N)ccc1-c1ccc(CC(=O)N2CCNCC2)cn1 [compound 783, 3-(5-cyclopropyl-2-methylpyrazol-3-yl)oxy-4-[5-(2-oxo-2-piperazin-1-ylethyl)pyridin-2-yl]benzonitrile] | > 1
Cc1nc(Oc2cc(C#N)ccc2-c2ncc(CN)cn2)cc(OC2CCC2)n1 [compound 788, 4-[5-(aminomethyl)pyrimidin-2-yl]-3-(6-cyclobutyloxy-2-methylpyrimidin-4-yl)oxybenzonitrile] | > 1
Cc1nc(Oc2cc(C#N)ccc2-c2ncc(CN)cn2)cc(N2CCC2)n1 [compound 789, 4-[5-(aminomethyl)pyrimidin-2-yl]-3-[6-(azetidin-1-yl)-2-methylpyrimidin-4-yl]oxybenzonitrile] | 0.01 to 1
CCN(C)c1cc(Oc2cc(C#N)ccc2-c2ncc(CN)cn2)nc(C)n1 [compound 790, 4-[5-(aminomethyl)pyrimidin-2-yl]-3-[6-[ethyl(methyl)amino]-2-methylpyrimidin-4-yl]oxybenzonitrile] | 0.01 to 1
Cc1nc(Oc2cc(C#N)ccc2-c2ncc(CN)cn2)cc(N2CCC[C@H]2C)n1 [compound 794, 4-[5-(aminomethyl)pyrimidin-2-yl]-3-[2-methyl-6-[(2R)-2-methylpyrrolidin-1-yl]pyrimidin-4-yl]oxybenzonitrile] | 0.01 to 1
Cc1nc(Oc2cc(C#N)ccc2-c2ncc(CN)cn2)cc(N(C)CC2CC2)n1 [compound 796, 4-[5-(aminomethyl)pyrimidin-2-yl]-3-[6-[cyclopropylmethyl(methyl)amino]-2-methylpyrimidin-4-yl]oxybenzonitrile] | 0.01 to 1
COCCN(C)c1cc(Oc2cc(C#N)ccc2-c2ncc(CN)cn2)nc(C)n1 [compound 797, 4-[5-(aminomethyl)pyrimidin-2-yl]-3-[6-[2-methoxyethyl(methyl)amino]-2-methylpyrimidin-4-yl]oxybenzonitrile] | > 1
COCCN(C)c1cc(Oc2cc(C#N)ccc2-c2ncc(CN)cn2)n(C)n1 [compound 798, 4-[5-(aminomethyl)pyrimidin-2-yl]-3-[5-[2-methoxyethyl(methyl)amino]-2-methylpyrazol-3-yl]oxybenzonitrile] | 0.01 to 1
